Measurements: publication PMC10534827 (Pharmaceuticals, 2023)
Where two headings read alike, the source gives them in different places.

Assays:
[1] = molecular target: T1, Acetylcholinesterase from Electrophorus electricus (Electrophorus electricus, UniProt O42275); test: biochemical; type: biochemical; conditions: for IC50: mean ± SD of three experiments, read-out: AChE IC50; for inhibition at 1000 µM: 1 mM solution of the tested compound, read-out: Activity [%] (inhibition percentage of AChE)
T1 construct: purchased Sigma-Aldrich, Hamburg, Germany
T1 sequence (O42275 24-633): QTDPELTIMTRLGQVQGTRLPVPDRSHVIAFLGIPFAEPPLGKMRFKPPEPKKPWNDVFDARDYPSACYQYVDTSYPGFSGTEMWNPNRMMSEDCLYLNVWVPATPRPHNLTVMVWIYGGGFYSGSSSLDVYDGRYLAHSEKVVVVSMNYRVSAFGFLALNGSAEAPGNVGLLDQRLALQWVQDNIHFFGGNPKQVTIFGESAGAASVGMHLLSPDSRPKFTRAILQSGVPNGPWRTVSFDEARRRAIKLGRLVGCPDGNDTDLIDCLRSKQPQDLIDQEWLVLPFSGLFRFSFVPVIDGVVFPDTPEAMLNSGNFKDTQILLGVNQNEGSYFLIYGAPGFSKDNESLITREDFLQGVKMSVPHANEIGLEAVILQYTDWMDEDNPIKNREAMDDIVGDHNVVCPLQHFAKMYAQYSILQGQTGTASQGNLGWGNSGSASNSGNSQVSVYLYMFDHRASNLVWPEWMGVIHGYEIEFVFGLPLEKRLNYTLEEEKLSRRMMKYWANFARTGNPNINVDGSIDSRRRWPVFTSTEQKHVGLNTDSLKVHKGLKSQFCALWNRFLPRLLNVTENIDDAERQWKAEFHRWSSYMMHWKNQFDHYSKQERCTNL
Experimental: (§1) AChE and BChE inhibitory activity was measured using the microplate assay described by Ellman et al. [68] with the modifications added by López et al. [36]. The compounds were tested at concentrations between 10^−3 and 10^−8 M. First, all compounds were dissolved in 1% DMSO in a concentration of 1 mg/mL.
(§2) Incubation of the plates was performed at room temperature for 30 min. Then, 100 μL of substrate solution were added to start the enzymatic reaction. […] Enzyme activity was calculated as an inhibition percentage compared to an assay including buffer instead of an inhibitor. […] All data were analyzed with the software package Prism 3 (Graph Pad Inc., San Diego, CA, USA).

[2] = molecular target: T2, butyrylcholinesterase from equine serum (Equus caballus, UniProt P81908); test: biochemical; conditions: for inhibition at 1000 µM: read-out: Activity [%] (inhibition percentage of BChE)
T2 construct: butyrylcholinesterase from equine serum; purchased Sigma-Aldrich, Hamburg, Germany; host or cells: equine serum
T2 sequence (P81908 whole entry): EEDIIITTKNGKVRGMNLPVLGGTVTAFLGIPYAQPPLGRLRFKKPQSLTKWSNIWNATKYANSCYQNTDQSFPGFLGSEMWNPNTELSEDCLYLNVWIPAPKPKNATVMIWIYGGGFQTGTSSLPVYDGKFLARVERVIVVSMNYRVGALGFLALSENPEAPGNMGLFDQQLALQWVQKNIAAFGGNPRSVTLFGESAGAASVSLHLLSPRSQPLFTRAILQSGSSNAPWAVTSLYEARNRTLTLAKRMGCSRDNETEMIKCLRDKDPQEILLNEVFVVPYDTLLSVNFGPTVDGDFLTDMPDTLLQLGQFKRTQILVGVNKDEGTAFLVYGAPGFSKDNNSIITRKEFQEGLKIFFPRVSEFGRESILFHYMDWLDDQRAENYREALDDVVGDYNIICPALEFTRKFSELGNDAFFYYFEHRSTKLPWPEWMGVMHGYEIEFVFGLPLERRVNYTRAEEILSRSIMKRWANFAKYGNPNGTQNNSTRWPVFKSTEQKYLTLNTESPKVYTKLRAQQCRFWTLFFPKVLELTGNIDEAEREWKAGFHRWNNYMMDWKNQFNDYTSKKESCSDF
Experimental: as §1, §2

[3] = system: Neuro-2a cells; test: MTT cytotoxicity, Neuro-2a; type: cell-based, murine; conditions: read-out: Neuro-2a IC50
[4] = system: SH-SY5Y cells; test: MTT cytotoxicity, SH-SY5Y; type: cell-based, human; conditions: read-out: SH-SY5Y IC50
[5] = system: CCL-1 cells; test: MTT cytotoxicity, CCL-1 normal fibroblasts; type: cell-based, murine; conditions: read-out: CCL-1 IC50
[6] = ABTS radical scavenging assay; conditions: 734 nm after 5 min
Experimental: These compounds were also tested for their antioxidant activities by using the ABTS [2,2′-azinobis (3-ethylbenzothiazoline-6-sulfonic acid)] cation radical decolorization method (Table 4). The BHT [41] was used for comparison. The ABTS cation radical is produced by oxidation of the ABTS molecule with strong oxidizing agents, such as potassium persulfate in water.
For ABTS assay, the procedure followed the method of Arnao et al. [71] with some modifications. […] The working solution was then prepared by mixing the two stock solutions in equal quantities and allowing them to react for 14 h at room temperature in the dark. […] A fresh ABTS solution was prepared for each assay. […] The ABTS scavenging capacity of the compound was calculated as follows:ABTS radical scavenging activity (%) = ((Abscontr. − Abssample)/Abscontr.) ×100, where Abscontr. is the absorbance of DPPH radical with 300 μL MeOH, Abssample is the absorbance of DPPH radical solution mixed with the sample. […] BHT was used as positive control.

[7] = Ferric reducing antioxidant power (FRAP); conditions: 150 μL of 5 mM compound, 30 min, 593 nm, Trolox equivalent
[8] = Lipid peroxidation in linoleic acid system, FTC method; conditions: 10 mM compound, 500 nm
Experimental: The antioxidant activity of studied compounds against lipid peroxidation was measured through ammonium thiocyanate assay as described by Takao et al. [66] with some modifications. […] A 10 μL aliquot of the reaction solution was then added to 200 μL of 70% (v/v) ethanol and 10 μL of 30% (w/v) ammonium thiocyanate. […] Aliquots were assayed every 24 h until the day after the absorbance of the control solution (without compound) reached maximum value. BHT (10 mM) was used as positive control.

[9] = DPPH radical scavenging activity; conditions: 300 μL of 5 mM compound in MeOH, 30 min, 517 nm
Experimental: The DPPH (2,2-diphenyl-1-picryl-hydrazyl-hydrate) free radical scavenging activity method is based on the neutralization of the DPPH radical by an antioxidant.
Free radical scavenging activity was measured using DPPH method [69, 70] with slight modification. Here, 300 μL of 5 mM solutions of tested compounds in MeOH were added to 2 mL methanolic solution of DPPH (2 mg/mL). […] Results were evaluated as percentage scavenging of radical:DPPH radical scavenging activity (%) = ((Abscontr. − Abssample)/Abscontr.) ×100, where Abscontr. is the absorbance of DPPH radical with 300 μL MeOH, Abssample is the absorbance of DPPH radical solution mixed with sample. BHT was used as positive control.

[10] = mean ± SD of three experiments, read-out: BChE IC50
[11] = Mus musculus, N2a, MTT, 72 h exposure
[12] = Homo sapiens, SH-SY5Y, MTT, 72 h exposure
[13] = Mus musculus, Fibroblast, MTT, 72 h exposure
[14] = 1 mM solution of the tested compound

## COc1ccc(S(=O)(=O)N/N=C/c2cn(C)c3ccc(OC)cc23)cc1 [5b, 4-methoxy-N’-[(E)-(5-methoxy-1-methyl-1H-indol-3-yl)methylidene]benzenesulfonohydrazide]
[1]
  IC50: > 1000 µM
[2]; [10]
  IC50: > 1000 µM
[3]; [11]
  IC50: 30.5 ± 3.2 µM
[4]; [12]
  IC50: 70.4 ± 4.9 µM
[5]; [13]
  IC50: 38.1 ± 3.5 µM

## COc1ccc(S(=O)(=O)N/N=C/c2c[nH]c3ccc(OC)cc23)cc1 [5c, 4-methoxy-N’-[(E)-(5-methoxy-1H-indol-3-yl)methylidene]benzenesulfonohydrazide]
[1]
  IC50: > 1000 µM
[2]; [14]
  inhibition at 1000 µM: 18.2%
[2]; [10]
  IC50: > 1000 µM
[3]; [11]
  IC50: 7.5 ± 2.4 µM
[4]; [12]
  IC50: 48.3 ± 5.2 µM
[5]; [13]
  IC50: 25.7 ± 2.9 µM

## O=S(=O)(N/N=C/c1cn(Cc2ccccc2)c2ccccc12)c1ccccc1 [5d, N’-[(E)-(1-benzyl-1H-indol-3-yl)methylidene]benzenesulfonohydrazide]
[1]
  inhibition at 1000 µM: 41.7%
  IC50: > 1000 µM
[2]; [10]
  IC50: > 1000 µM
[3]; [11]
  IC50: 117 ± 11.5 µM
[4]; [12]
  IC50: 99.5 ± 7.8 µM
[5]; [13]
  IC50: 140 ± 8.4 µM

## COc1ccc(S(=O)(=O)N/N=C/c2cn(C)c3ccccc23)cc1 [5e, 4-methoxy-N’-[(E)-(1-methyl-1H-indol-3-yl)methylidene]benzenesulfonohydrazide]
[1]
  IC50: > 1000 µM
[2]; [10]
  IC50: > 1000 µM
[3]; [11]
  IC50: 19.9 ± 1.7 µM
[4]; [12]
  IC50: 83.3 ± 4.9 µM
[5]; [13]
  IC50: 180 ± 9.6 µM

## Cc1ccc(S(=O)(=O)N/N=C/c2c[nH]c3ccc(OCc4ccccc4)cc23)cc1 [5j, N’-{(E)-[5-(benzyloxy)-1H-indol-3-yl]methylidene}-4-methylbenzenesulfonohydrazide]
[1]
  inhibition at 1000 µM: 13.2%
  IC50: > 1000 µM
[2]; [14]
  inhibition at 1000 µM: 56.9%
[2]; IC50(AChE)/IC50(BChE)
  SI BChE: 1.15
[2]; [10]
  IC50: 865 ± 159 µM
[3]; [11]
  IC50: 65.4 ± 0.1 µM
[4]; [12]
  IC50: 33.1 ± 0.1 µM
[5]; [13]
  IC50: 41.2 ± 4.2 µM
[6]
  ABTS Activity: ≥100%
  IC50: 2180 ± 160 µM
[7]
  FRAP: 18.59 ± 2.28 μMTE
[8]
  Absorbance Day 1: 0.83 ± 0.01
  Absorbance Day 2: 0.83 ± 0.08
  Absorbance Day 3: 0.84 ± 0.02
  Absorbance Day 4: 0.83 ± 0.05
  Absorbance Day 5: 0.82 ± 0.02

## O=S(=O)(N/N=C/c1ccc(Cl)cc1)c1ccccc1 [5l, N’-[(E)-(4-chlorophenyl)methylidene]benzenesulfonohydrazide]
[1]
  IC50: > 1000 µM
[2]; [10]
  IC50: > 1000 µM
[3]; [11]
  IC50: 117 ± 11.5 µM
[4]; [12]
  IC50: 99.5 ± 7.8 µM
[5]; [13]
  IC50: 131 ± 11.4 µM

## Cc1cc(C(C)(C)C)c(O)c(C(C)(C)C)c1 [BHT, butylated hydroxytoluene, reference compound]
[6]
  ABTS Activity: 29.53 ± 1.65%
  IC50: > 5000 µM
[7]
  FRAP: 15.79 ± 0.58 μMTE
[8]
  Absorbance Day 1: 0.74 ± 0.07
  Absorbance Day 2: 0.77 ± 0.03
  Absorbance Day 3: 0.78 ± 0.06
  Absorbance Day 4: 0.80 ± 0.06
  Absorbance Day 5: 0.81 ± 0.09
[9]
  DPPH Activity: 7.78 ± 0.77%

## COc1cc2c(cc1OC)C(=O)C(CC1CCN(Cc3ccccc3)CC1)C2 (centres unmarked) [Donepezil, 1-Benzyl-4-[(5,6-dimethoxy-1-indanon-2-yl)methyl]piperidine, reference compound]
[2]
  inhibition at 1000 µM: 69.1%

## COc1ccc2c3c1O[C@H]1C[C@@H](O)C=C[C@@]31CCN(C)C2 [Galanthamine, reference compound]
[2]
  inhibition at 1000 µM: 85.8%
[3]; Mus musculus, N2a, 72 h
  IC50: > 300 µM
[4]; Homo sapiens, SH-SY5Y, 72 h
  IC50: > 300 µM
[5]; Mus musculus, Fibroblast, 72 h
  IC50: > 300 µM

## COc1ccc2[nH]cc(CCNC(C)=O)c2c1 [Melatonin, reference compound]
[1]
  inhibition at 1000 µM: 1.24%
  IC50: > 1000 µM
[2]
  IC50: > 1000 µM
  inhibition at 1000 µM: 4.21 ± 0.88%
[8]
  Absorbance Day 1: 0.75 ± 0.07
  Absorbance Day 2: 0.80 ± 0.09
  Absorbance Day 3: 0.89 ± 0.05
  Absorbance Day 4: 0.89 ± 0.02
  Absorbance Day 5: 0.94 ± 0.01

## N’-[(E)-(5-methoxy-1-methyl-1H-indol-3-yl)methylidene]benzenesulfonohydrazide [5f]
[1]
  IC50: > 1000 µM
[2]; [10]
  IC50: > 1000 µM
[3]; MTT, 72 h exposure
  IC50: 135 ± 10.9 µM
[4]; MTT, 72 h exposure
  IC50: 132 ± 10.3 µM
[5]; MTT, 72 h exposure
  IC50: 167 ± 11.8 µM
